Measured values published in paper PMC10454728, “A Comparative Study on the Lysosomal Cation Channel TMEM175 Using Automated Whole-Cell Patch-Clamp, Lysosomal Patch-Clamp, and Solid Supported Membrane-Based Electrophysiology: Functional Characterization and High-Throughput Screening Assay Development” (International Journal of Molecular Sciences, 2023).

What was measured:
TMEM175 [1] = molecular target: T1, TMEM175 (Homo sapiens, UniProt Q9BSA9); assay: Whole-cell automated patch-clamp (APC) Cs+ flux assay, SyncroPatch 384i, HEK293 overexpressing TMEM175; type: cell-based; conditions: 50 µM, at +100 mV, Figure 7F
T1 sequence (Q9BSA9 1-504): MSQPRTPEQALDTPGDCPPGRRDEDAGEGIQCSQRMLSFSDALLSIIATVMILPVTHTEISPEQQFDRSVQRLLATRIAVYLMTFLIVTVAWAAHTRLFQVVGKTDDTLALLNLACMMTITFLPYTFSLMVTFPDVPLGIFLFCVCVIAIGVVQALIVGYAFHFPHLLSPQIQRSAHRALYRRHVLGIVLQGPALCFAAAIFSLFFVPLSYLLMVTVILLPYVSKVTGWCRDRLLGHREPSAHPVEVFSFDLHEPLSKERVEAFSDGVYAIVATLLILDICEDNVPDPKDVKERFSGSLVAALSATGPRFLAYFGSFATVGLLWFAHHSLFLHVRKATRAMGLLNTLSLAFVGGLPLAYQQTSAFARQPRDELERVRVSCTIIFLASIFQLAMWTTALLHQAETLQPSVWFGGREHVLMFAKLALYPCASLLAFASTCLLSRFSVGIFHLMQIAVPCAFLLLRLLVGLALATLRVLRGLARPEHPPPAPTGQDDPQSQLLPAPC

TMEM175 [2] = molecular target: T1, TMEM175; assay: Manual lysosomal patch-clamp (LPC) on vacuolin-1 enlarged lysosomes; type: biochemical
Description: Since both technologies apply different assay conditions and samples, the origin of the discrepancies may not be concluded. To investigate potential systematic variations among different assay technologies, namely, whole-cell APC, SSME on purified lysosomes, and manual LPC, we conducted a comparative analysis of the potency and maximum potentiation of a set of eight blinded compounds and SC-79 (Figure 8, Table 4). SSME recordings were performed using the same procedures as described for the tool compounds above. However, adjustments were made to the voltage application protocol in APC, as outlined in the Methods section. Lysosomal patch-clamp was performed using a manual setup. In contrast to APC and SSME recordings, the recorded current in LPC represents H^+ efflux from lysosomes in the presence of a physiological pH gradient (details are provided in the Methods section).
Experiments were carried out in whole-lysosome configuration in voltage-clamp mode, using a modified patch-clamp method, as described by Chen et al..
Briefly, cells were treated overnight with 5 µM vacuolin-1 to increase the size of the lysosomes. Mechanical isolation was performed using a patch pipette pressed against a selected cell, and quickly pulled away to slice the cell membrane to release the enlarged lysosomes into the dish. After the dissection of the lysosomes, the glass electrode was exchanged for a recording electrode. After the formation of a giga-seal and compensation of capacitance transients, voltage steps of several hundred millivolts with millisecond duration were applied to break into the vacuolar membrane.
The bath solution representing the cytosol contained 10 mM HEPES (pH 7.2), 145 mM K-methanesulfonate and 5 mM KCl. The pipette solution representing the lysosomal lumen contained 10 mM MES (pH 5.5), 145 mM Cs-methanesulfonate, 5 mM KCl, and 10 mM EGTA.
After the reappearance of capacitance transients to verify the whole-lysosome configuration, the TMEM175 currents were recorded using a ramp protocol from −100 to +100 mV with 1 s of duration, digitized at 20 kHz. The ramp protocol was repeated in 4 s intervals, keeping the lysosomes at 0 mV in between. We used the outward current at +100 mV as a read-out, essentially observing the flux of H^+ and Cs^+ from the lysosome into the cytosol. […]
Before averaging across datasets obtained from N = 3 lysosomes, we normalized the currents to the control current. Datasets containing 6 or 9 compound concentrations were recorded in two or three sets of experiments with 3 compound concentrations per lysosome. All experiments were conducted at room temperature, and recordings were analyzed with pClamp 10.7 and GraphPad Prism 8.

control HEK293 UT cells = assay: Whole-cell APC off-target effects on control cells; type: cell-based, human; conditions: 50 µM
Description: Figure 7 Whole-cell APC recordings on TMEM175: (A) Schematic representation of assay conditions in the Cs^+ flux assay. The ions known to permeate through TMEM175 in the external and internal solutions are indicated; (B) Voltage protocol and time points for the read-out of inward and outward currents; (C) The compound application protocol consists of the recording of the TMEM175 baseline current. […] Success rates were determined based on the QC criteria provided in the Methods section. […] We determined average values, AVGpos and AVGneg, and standard deviations, SDpos and SDneg, of the recorded currents. […] Datapoints were normalized to the TMEM175 baseline current before compound addition and then averaged across at least N = 5 cells. Error bars represent the SEM obtained from automated data analysis using DataControl384. […] The compound effects on control cells were between +10% and -40% compared to the control baseline current. […]. […] Therefore, off-target compound effects seem to be negligible in the APC assay.

Row | Compound | Current of TMEM175 cells after enhancer, APC (TMEM175 [1]) | Imax − Imin (nA), LPC (TMEM175 [2]; Table 4 fit, currents normalized to current before compound) | n (Hill coefficient), LPC (TMEM175 [2]; fixed to 1 in the fit) | Potentiation, LPC (TMEM175 [2]; from dose-response fit, Figure 8) | EC50 (TMEM175 [2]; outward current at +100 mV, pipette pH 5.5 / bath pH 7.2) | Decrease of baseline current of control cells (control HEK293 UT cells)
1 | CCOC(=O)C1=C(N)Oc2ccc(Cl)cc2C1C(C#N)C(=O)OCC (stereo not drawn) [SC-79] | 305 ± 39% | 0.91 ± 0.52 nA | 1 | 91 ± 52% | 21 ± 32 µM | 
2 | [Cl-].[Cl-].[Zn+2] [Zn, ZnCl2] |  |  |  |  |  | 30–40%
